# Data reported in patent US20170157103A1, “METHODS OF TREATING DIFFUSE LARGE B-CELL LYMPHOMA USING 3-(4-AMINO-1-OXOISOINDOLIN-2-YL)PIPERIDINE-2,6-DIONE” (Celgene Corporation, priority 2015, published 2017).
# Legend:
# [1] = system: relapsed or refractory diffuse large B-cell lymphoma; assay: Clinical trial of lenalidomide vs control in relapsed or refractory DLBCL patients, subtype determined by Affymetrix; type: in vivo, human; settings: for Median overall survival / Median progression free survival: relapsed or refractory DLBCL patients
# Source text: DLBCL lymph-node biopsies were either snap frozen or formalin fixed and paraffin embedded similarly to that described by Scott et al., Blood 2014 123(8) 1214-1217, the disclosure of which is incorporated herein in its entirety. Messenger RNA was purified and reverse transcribed into cDNA.
# DNA microarray analysis of gene expression was done essentially as described below. The cDNA clones on the Lymphochip microarray are available from Research Genetics. Fluorescent images of hybridized microarrays were obtained using a GenePix 4000 microarray scanner (Axon Instruments). Images were analysed with ScanAlyze (M. Eisen; http://www.microarrays.org/software), and fluorescence ratios (along with numerous quality control parameters; see ScanAlyze manual) were stored in a custom database. Single spots or areas of the array with obvious blemishes were flagged and excluded from subsequent analyses. Fluorescence ratios were calibrated independently for each array by applying a single scaling factor to all fluorescent ratios from each array; this scaling factor was computed so that the median fluorescence ratio of well-measured spots on each array was 1.0.
# All cDNA microarray analyses were performed using poly-(A)^+ mRNA (Fast Track, Invitrogen). In each experiment, fluorescent cDNA probes were prepared from an experimental mRNA sample (Cy5-labelled) and a control mRNA sample (Cy3-labelled) isolated from a pool of nine lymphoma cell lines (Raji, Jurkat, L428, OCI-Ly3, OCI-Ly8, OCI-Lyl, SUDHL5, SUDHL6 and WSU1). The use of a common control cDNA probe allows the relative expression of each gene to be compared across all samples.
# All non-flagged array elements for which the fluorescent intensity in each channel was greater than 1.4 times the local background were considered well measured. The ratio values were log-transformed (base 2) and stored in a table (rows, individual cDNA clones; columns, single mRNA samples). Data for the genes were centered by subtracting (in log space) the median observed value, to remove any effect of the amount of RNA in the reference pool. This dataset contains 4,026 array elements. Hierarchical clustering was applied to both axes using the weighted pair-group method with centroid average as implemented in the program Cluster (M. Eisen; http://www.microarrays.org/software). The distance matrixes used were Pearson correlation for clustering the arrays and the inner product of vectors normalized to magnitude 1 for the genes. The results were analysed with Tree View (M. Eisen; http://www.microarrays.org/software).
# (§1) This clinical benefit is observed when subtype is determined by the Affymetrix test (FIG. 1) or by the NanoString test (FIG. 2).
# [2] = system: relapsed or refractory diffuse large B-cell lymphoma; assay: Clinical trial of lenalidomide vs control in relapsed or refractory DLBCL patients, subtype determined by NanoString; type: in vivo, human; settings: for Median overall survival / Median progression free survival: relapsed or refractory DLBCL patients
# Source text: DLBCL lymph-node biopsies were formalin fixed and paraffin embedded (FFPE) similarly to that described in Scott et al., Blood 2014 123(8) 1214-1217, the disclosure of which is incorporated by reference herein. Nucleic acids obtained from the tissues were extracted using the QIAGEN AllPrep DNA/RNA FFPE Kit, with deparaffinization achieved using the QIAGEN Deparaffinization Solution, according to the manufacturer's instructions. The RNA was quantitated using spectrophotometry (NanoDrop, Thermo Science, DE). Gene expression on approximately 200 nanograms of RNA was used to determine gene expression levels by means of NanoString technology (NanoString Technologies, WA). The total RNA was hybridized to the custom codesets at 65° C. overnight. The reaction was processed on the nCounter™ Prep Station and gene expression data was then acquired on the nCounter™ Digital Analyzer.
# as §1
# [3] = ABC plus unclassified subtype (by Affymetrix)
# [4] = ABC plus unclassified subtype (by Nanostring)
compound,measurement,setting,value
"Nc1cccc2c1CN(C1CCC(=O)NC1=O)C2=O (centres unmarked) [lenalidomide, 3-(4-amino-1-oxoisoindolin-2-yl)piperidine-2,6-dione]",Clinical benefit compared to control as measured by progression free survival,"[1]; ABC DLBCL subtype patients and unclassifiable patients, subtype by Affymetrix test (FIG. 1)",benefit
same,Median overall survival,[1]; [3],16.3/33^ weeks
same,Median progression free survival,[1]; [3],6.3/9.1 weeks
same,Median overall survival,[1]; ABC subtype (by Affymetrix),18.6/108.4 weeks
same,Median progression free survival,[1]; ABC subtype (by Affymetrix),6.2/82 weeks
same,Median overall survival,[1]; GBC subtype (by Affymetrix),20/30 weeks
same,Median progression free survival,[1]; GBC subtype (by Affymetrix),7.1/13.2 weeks
same,Clinical benefit compared to control as measured by progression free survival,"[2]; ABC DLBCL subtype patients and unclassifiable patients, subtype by NanoString test (FIG. 2)",benefit
same,Median overall survival,[2]; [4],36.9/108.4 weeks
same,Median progression free survival,[2]; [4],6.6/82 weeks
same,Median overall survival,[2]; ABC subtype (by Nanostring),37/43.7 weeks
same,Median progression free survival,[2]; ABC subtype (by Nanostring),6/27 weeks
same,Median overall survival,[2]; GBC subtype (by Nanostring),34.9/18 weeks
same,Median progression free survival,[2]; GBC subtype (by Nanostring),9/8.7 weeks
